Measured values from patent publication US11104805B2, “High-saturation scarlet color dye ink for high-speed inkjet process” (KOREA INSTITUE OF INDUSTRIAL TECHNOLOGY, priority 2018, dated 2021).
“Also recorded” adds a separate entry of the source.

Experiments:
Water solubility of dyes = type: physicochemical
[1] = UV-Vis absorption spectra of dyes in water; type: physicochemical; conditions: 10^−5 M in water
From the text: The UV-Vis absorption spectra of the dyes 1b to 3b measured at 10^−5 M in water are illustrated in FIG. 2, and corresponding data are shown in Table 1 below. […] When the water solubility of the dye increases, the probability of being present as a single molecule increases, and thus the color developability of each dye molecule is increased, resulting in increased color intensity.
In addition, an absorption peak form having two absorption maxima appeared. This is because a single molecule and aggregated molecules have different absorption maxima. Generally, as the concentration becomes lower, the probability of being present as a single molecule increases, and as the concentration increases, the tendency to aggregate becomes stronger, and thus one peak appears at each maximum, but it was confirmed from this experiment that since the two cases were present at a measurement concentration of 10 μM, absorption peaks appeared separately.

[2] = Thermal stability by TGA under N2 atmosphere; type: physicochemical
From the text: The thermal stability of each sample was investigated by a TGA method under an N2 atmosphere.

[3] = Light stability: relative absorbance over time under light irradiation
Method: An absorbance value before light irradiation was set to 1 and relative absorbance values over time were measured.

Structure (SMILES) | water solubility compared with the synthesized perylene dyes (1b to 3b) (Water solubility of dyes; comparison in words) | εmax ([1]; at first (or only) absorption maximum) | λmax (nm) (after 1,200 min) ([1]; first (or only) absorption maximum) | Td (degradation temperature) [2] | shift of absorption maxima after final light irradiation ([3]; 1,200 minutes) | relative absorbance after final light irradiation ([3]; 1,200 minutes, absorbance before irradiation set to 1) | λmax (nm) (after 1200 min) ([3]; after 1200 min light irradiation, first (or only) maximum) | λmax (nm) ([3]; before light irradiation, first (or only) maximum) | K (photodegradation rate constant) ([3]; light irradiation) | water solubility (Water solubility of dyes; in water)
O=S(=O)([O-])c1ccc2c(N=Nc3ccc(S(=O)(=O)[O-])c4ccccc34)c(O)c(S(=O)(=O)[O-])cc2c1.[Na+].[Na+].[Na+] [Acid red 27] | poorer water solubility; also recorded: deteriorated solubility | 23000 L/mol/cm | 521 nm | 291 °C | about 4 nm | about 0.5 | (→ 506) nm | 502 nm | 0.0004945 min⁻¹ | 
O=C1c2ccc3c4c(S(=O)(=O)O)cc5c6c(ccc(c7c(S(=O)(=O)O)cc(c2c37)C(=O)N1c1ccc(S(=O)(=O)O)cc1)c64)C(=O)N(c1ccc(S(=O)(=O)O)cc1)C5=O [Dye 3b, N,N′-bis[4-(sulfuric acid)phenyl]-1,7-(disulfuric acid)perylene-3,4,9,10-tetra carboxydiimide] |  |  |  |  |  |  |  |  |  | ≥ 20 wt %
